Data reported in ChEMBL document CHEMBL4229455, “Synthesis and anticancer activity of novel bisindolylhydroxymaleimide derivatives with potent GSK-3 kinase inhibition” (Bioorg Med Chem, 2018).

Columns and labels:
[1] = molecular target: Receptor-interacting serine/threonine-protein kinase 3 (Homo sapiens, UniProt Q9Y572); experiment: Inhibition of recombinant full length human RIPK3 expressed in baculovirus infected Sf9 insect cells using MBP as substrate in presence of [gamma-33P]ATP
[2] = molecular target: CDK9/cyclin T1 (Homo sapiens, UniProt P50750); experiment: Inhibition of recombinant full length human CDK9/cyclin T expressed in baculovirus infected Sf9 insect cells using YSPTSPSYSPTSPSYSPTSPSKKKK as substrate in presence of [gamma-33P]ATP
[3] = molecular target: T1, Serine/threonine-protein kinase haspin (Homo sapiens) (UniProt Q8TF76); experiment: Inhibition of recombinant human haspin kinase domain expressed in bacteria assessed as residual activity at 10 uM using histone H3 (1 to 21 residues) peptide as substrate in presence of [gamma-33P]ATP
T1 sequence (whole entry): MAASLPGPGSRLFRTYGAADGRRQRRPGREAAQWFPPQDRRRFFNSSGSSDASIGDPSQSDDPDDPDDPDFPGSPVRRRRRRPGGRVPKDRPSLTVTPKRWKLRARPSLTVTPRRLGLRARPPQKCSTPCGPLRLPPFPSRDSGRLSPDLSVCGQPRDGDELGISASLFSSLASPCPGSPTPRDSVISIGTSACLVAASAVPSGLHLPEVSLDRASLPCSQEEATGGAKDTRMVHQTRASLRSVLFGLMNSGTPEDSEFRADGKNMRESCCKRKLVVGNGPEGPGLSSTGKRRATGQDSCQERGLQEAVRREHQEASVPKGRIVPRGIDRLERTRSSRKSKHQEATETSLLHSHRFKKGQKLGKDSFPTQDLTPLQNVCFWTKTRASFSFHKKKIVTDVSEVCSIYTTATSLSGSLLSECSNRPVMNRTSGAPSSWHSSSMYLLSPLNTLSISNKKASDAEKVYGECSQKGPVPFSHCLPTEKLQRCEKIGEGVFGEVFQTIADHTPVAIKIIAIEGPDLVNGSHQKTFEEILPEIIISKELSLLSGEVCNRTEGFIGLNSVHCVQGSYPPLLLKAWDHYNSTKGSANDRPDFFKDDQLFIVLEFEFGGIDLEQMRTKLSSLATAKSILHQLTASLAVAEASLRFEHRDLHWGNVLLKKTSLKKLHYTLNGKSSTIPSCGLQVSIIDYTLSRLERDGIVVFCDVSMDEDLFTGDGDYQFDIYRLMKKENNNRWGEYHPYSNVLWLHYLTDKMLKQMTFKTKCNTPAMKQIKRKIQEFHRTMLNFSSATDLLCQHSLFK

[4] = system: MOLT-4; experiment: Cytotoxicity against human MOLT4 cells assessed as cell growth at 10 uM after 48 hrs by SRB assay relative to control; format: functional; details: MOLT-4, 48 h, read-out: Activity
[5] = system: RPMI-8226; experiment: Cytotoxicity against human RPMI8226 cells assessed as cell growth at 10 uM after 48 hrs by SRB assay relative to control; format: functional; details: RPMI-8226, 48 h, read-out: Activity
[6] = system: NCI-H522; experiment: Cytotoxicity against human NCI-H522 cells assessed as cell growth at 10 uM after 48 hrs by SRB assay relative to control; format: functional; details: NCI-H522, 48 h, read-out: Activity
[7] = system: HCC 2998; experiment: Cytotoxicity against human HCC2998 cells assessed as cell growth at 10 uM after 48 hrs by SRB assay relative to control; format: functional; details: HCC 2998, 48 h, read-out: Activity
[8] = system: HCT-116; experiment: Cytotoxicity against human HCT116 cells assessed as cell growth at 10 uM after 48 hrs by SRB assay relative to control; format: functional; details: HCT-116, 48 h, read-out: Activity
[9] = system: SW-620; experiment: Cytotoxicity against human SW620 cells assessed as cell growth at 10 uM after 48 hrs by SRB assay relative to control; format: functional; details: SW-620, 48 h, read-out: Activity
[10] = system: SF-295; experiment: Cytotoxicity against human SF295 cells assessed as cell growth at 10 uM after 48 hrs by SRB assay relative to control; format: functional; details: SF-295, 48 h, read-out: Activity
[11] = system: Malme-3M; experiment: Cytotoxicity against human MALME-3M cells assessed as cell growth at 10 uM after 48 hrs by SRB assay relative to control; format: functional; details: read-out: Activity
[12] = system: M14; experiment: Cytotoxicity against human M14 cells assessed as cell growth at 10 uM after 48 hrs by SRB assay relative to control; format: functional; details: M14, 48 h, read-out: Activity
[13] = system: SK-MEL-2; experiment: Cytotoxicity against human SK-MEL-2 cells assessed as cell growth at 10 uM after 48 hrs by SRB assay relative to control; format: functional; details: SK-MEL-2, 48 h, read-out: Activity
[14] = system: UACC-62; experiment: Cytotoxicity against human UACC62 cells assessed as cell growth at 10 uM after 48 hrs by SRB assay relative to control; format: functional; details: UACC-62, 48 h, read-out: Activity
[15] = system: OVCAR-3; experiment: Cytotoxicity against human OVCAR3 cells assessed as cell growth at 10 uM after 48 hrs by SRB assay relative to control; format: functional; details: OVCAR-3, 48 h, read-out: Activity
[16] = system: PC-3; experiment: Cytotoxicity against human PC3 cells assessed as cell growth at 10 uM after 48 hrs by SRB assay relative to control; format: functional; details: PC-3, 48 h, read-out: Activity
[17] = system: MDA-MB-231; experiment: Cytotoxicity against human MDA-MB-231 cells assessed as cell growth at 10 uM after 48 hrs by SRB assay relative to control; format: functional; details: MDA-MB-231, 48 h, read-out: Activity
[18] = system: Hs-578T; experiment: Cytotoxicity against human Hs 578T cells assessed as cell growth at 10 uM after 48 hrs by SRB assay relative to control; format: functional; details: read-out: Activity
[19] = system: T47D; experiment: Cytotoxicity against human T47D cells assessed as cell growth at 10 uM after 48 hrs by SRB assay relative to control; format: functional; details: read-out: Activity
[20] = system: MDA-MB-468; experiment: Cytotoxicity against human MDA-MB-468 cells assessed as cell growth at 10 uM after 48 hrs by SRB assay relative to control; format: functional; details: MDA-MB-468, 48 h, read-out: Activity
[21] = system: SF-295; experiment: Cytotoxicity against human SF295 cells assessed as cell growth at 1 uM after 48 hrs by SRB assay relative to control; format: functional; details: SF-295, 48 h, read-out: Activity
[22] = system: MDA-MB-435; experiment: Cytotoxicity against human MDA-MB-435 cells assessed as cell growth at 1 uM after 48 hrs by SRB assay relative to control; format: functional; details: MDA-MB-435, 48 h, read-out: Activity
[23] = system: NCI/ADR-RES; experiment: Cytotoxicity against human NCI-ADR-RES cells assessed as cell growth at 1 uM after 48 hrs by SRB assay relative to control; format: functional; details: read-out: Activity
[24] = system: SR; experiment: Cytotoxicity against human SR cells assessed as cell growth at 10 uM after 48 hrs by SRB assay relative to control; format: functional; details: read-out: Activity
[25] = system: EKVX; experiment: Cytotoxicity against human EKVX cells assessed as cell growth at 10 uM after 48 hrs by SRB assay relative to control; format: functional; details: read-out: Activity
[26] = system: MDA-MB-435; experiment: Cytotoxicity against human MDA-MB-435 cells assessed as cell growth at 10 uM after 48 hrs by SRB assay relative to control; format: functional; details: MDA-MB-435, 48 h, read-out: Activity

Sequence of Receptor-interacting serine/threonine-protein kinase 3 (Q9Y572 whole entry): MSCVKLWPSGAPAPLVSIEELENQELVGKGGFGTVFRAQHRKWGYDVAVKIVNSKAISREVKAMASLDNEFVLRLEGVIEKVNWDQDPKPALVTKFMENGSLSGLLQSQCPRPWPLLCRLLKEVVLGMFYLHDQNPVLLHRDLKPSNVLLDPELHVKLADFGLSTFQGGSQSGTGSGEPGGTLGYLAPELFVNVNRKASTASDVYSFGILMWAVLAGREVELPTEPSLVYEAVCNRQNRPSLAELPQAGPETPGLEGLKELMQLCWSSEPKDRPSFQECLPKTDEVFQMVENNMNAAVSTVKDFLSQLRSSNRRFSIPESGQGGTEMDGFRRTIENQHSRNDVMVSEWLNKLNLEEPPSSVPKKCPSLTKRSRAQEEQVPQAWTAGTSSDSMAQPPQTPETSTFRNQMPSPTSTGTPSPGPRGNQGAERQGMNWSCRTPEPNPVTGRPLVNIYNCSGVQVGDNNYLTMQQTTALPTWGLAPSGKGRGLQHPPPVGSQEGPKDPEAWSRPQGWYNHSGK
Sequence of CDK9/cyclin T1 (O60563 whole entry, the tested form may be a part): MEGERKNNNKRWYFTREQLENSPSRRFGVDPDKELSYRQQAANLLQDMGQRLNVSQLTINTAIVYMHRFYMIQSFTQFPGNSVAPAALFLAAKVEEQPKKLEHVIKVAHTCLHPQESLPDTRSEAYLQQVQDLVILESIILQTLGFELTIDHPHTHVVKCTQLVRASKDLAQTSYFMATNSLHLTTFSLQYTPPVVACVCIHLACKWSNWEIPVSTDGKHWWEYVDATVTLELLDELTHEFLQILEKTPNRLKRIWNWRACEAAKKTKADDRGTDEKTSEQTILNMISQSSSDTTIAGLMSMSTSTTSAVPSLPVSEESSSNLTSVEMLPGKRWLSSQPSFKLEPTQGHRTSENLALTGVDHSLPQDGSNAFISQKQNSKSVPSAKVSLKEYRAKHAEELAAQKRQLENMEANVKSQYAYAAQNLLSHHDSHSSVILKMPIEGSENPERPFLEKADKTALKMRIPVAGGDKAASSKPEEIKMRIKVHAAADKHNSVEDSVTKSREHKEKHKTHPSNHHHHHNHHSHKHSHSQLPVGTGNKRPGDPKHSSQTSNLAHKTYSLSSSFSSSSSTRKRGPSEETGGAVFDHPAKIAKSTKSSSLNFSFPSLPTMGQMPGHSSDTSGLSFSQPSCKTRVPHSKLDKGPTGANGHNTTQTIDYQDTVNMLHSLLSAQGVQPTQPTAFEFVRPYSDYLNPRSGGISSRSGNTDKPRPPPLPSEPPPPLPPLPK
Sequence of CDK9/cyclin T1 (P50750 whole entry, the tested form may be a part): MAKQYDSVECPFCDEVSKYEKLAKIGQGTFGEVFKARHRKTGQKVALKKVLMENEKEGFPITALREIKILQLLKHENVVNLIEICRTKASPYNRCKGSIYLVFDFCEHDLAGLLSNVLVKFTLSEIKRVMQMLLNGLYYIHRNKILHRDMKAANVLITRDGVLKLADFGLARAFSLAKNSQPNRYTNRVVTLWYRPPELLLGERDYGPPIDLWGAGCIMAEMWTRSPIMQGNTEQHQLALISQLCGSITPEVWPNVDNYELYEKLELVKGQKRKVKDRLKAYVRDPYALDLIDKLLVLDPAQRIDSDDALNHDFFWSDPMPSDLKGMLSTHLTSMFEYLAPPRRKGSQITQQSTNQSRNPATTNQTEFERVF

| Structure (SMILES) | IC50 [1] [µM] | IC50 [2] [µM] | Activity [3] [%] | growth at 10 µM [4] [%] | growth at 10 µM [5] [%] | growth at 10 µM [6] [%] | growth at 10 µM [7] [%] | growth at 10 µM [8] [%] | growth at 10 µM [9] [%] | growth at 10 µM [10] [%] | growth at 10 µM [11] [%] | growth at 10 µM [12] [%] | growth at 10 µM [14] [%] | growth at 10 µM [15] [%] | growth at 10 µM [16] [%] | growth at 10 µM [17] [%] | growth at 10 µM [19] [%] | growth at 1 µM [21] [%] | growth at 1 µM [22] [%] | growth at 1 µM [23] [%] | further results |
| --- | --- | --- | --- | --- | --- | --- | --- | --- | --- | --- | --- | --- | --- | --- | --- | --- | --- | --- | --- | --- | --- |
| N#CCCCCCn1cc(C2=C(c3cn(CCCCCC#N)c4ccccc34)C(=O)N(O)C2=O)c2ccccc21 | > 10 | > 10 | 99 | 10 to 49.4 | 39.1 | 1 to 54.9 | 59 to 99.6 | 21 to 63.3 | 31 to 62.5 | 35 to 85 | 55 | 28 to 73.4 | 14 to 53.3 | 13 to 50.6 | 29 to 70.3 | 31 to 40.3 | 26 to 65.5 | 96 | 96 | 102 | growth at 10 µM [13]: 8 to 68.7%; growth at 10 µM [18]: 25 to 80%; growth at 10 µM [20]: 3 to 58% |
| Cn1cc(C2=C(c3cn(C)c4ncccc34)C(=O)NC2=O)c2ccccc21 | > 10 | 0.08 | 101 | 8 to 12.6 | 45.4 | 14.3 to 32 | 30 to 58.9 | 15 to 21.9 | 12.9 to 20 | 9.52 | 20.3 to 29 | 7 to 17.5 | 27 to 36.6 | 25 to 50.2 | 23 to 44.6 | 35 to 56.3 | 10 to 24.2 | 85 | 40 | 91 | growth at 10 µM [24]: 7 to 12.1%; growth at 10 µM [25]: 9 to 62.7%; growth at 10 µM [26]: 12.9 to 14% |
